How the values were obtained:
Rattus norvegicus [1] = experiment: Hypocholesterolemic activity in Wistar rat model with high cholesterol diet assessed as reduction in liver lobular inflammation at 6 mg/kg, po qd measured after 23 days by H and E staining assay; format: functional; settings: time 23 day
Rattus norvegicus [2] = experiment: Hypocholesterolemic activity in Wistar rat model with high cholesterol diet assessed as reduction of steatosis at 6 mg/kg, po qd measured after 23 days by H and E staining assay; format: functional; settings: time 23 day
Rattus norvegicus [3] = experiment: Effect on body weight in Wistar rat model with high cholesterol diet at 6 mg/kg, po qd measured after 23 days; format: ADME, organism-based; settings: in vivo, 552 h, time 23 day
Rattus norvegicus [4] = experiment: Effect on body weight gain in Wistar rat model with high cholesterol diet at 6 mg/kg, po qd measured after 23 days relative to control; format: ADME, organism-based; settings: in vivo, 552 h, time 23 day
Rattus norvegicus [5] = experiment: Effect on liver weight in Wistar rat model with high cholesterol diet at 6 mg/kg, po qd measured after 23 days; format: ADME, organism-based; settings: in vivo, 552 h, time 23 day
Rattus norvegicus [6] = experiment: Effect on Wistar rat model with high cholesterol diet assessed as ratio of liver weight to body weight at 6 mg/kg, po qd measured after 23 days; format: ADME, organism-based; settings: in vivo, 552 h, time 23 day
Rattus norvegicus [7] = experiment: Hypocholesterolemic activity in Wistar rat model with high cholesterol diet assessed as amount of Triglycerides in serum at 6 mg/kg, po qd measured after 23 days by microplate reader assay relative to control; format: functional; settings: time 23 day
Rattus norvegicus [8] = experiment: Hypocholesterolemic activity in Wistar rat model with high cholesterol diet assessed as amount of Total cholesterol in serum at 6 mg/kg, po qd measured after 23 days by microplate reader assay relative to control; format: functional; settings: time 23 day
Rattus norvegicus [9] = experiment: Hypocholesterolemic activity in Wistar rat model with high cholesterol diet assessed as amount of LDL-C in serum at 6 mg/kg, po qd measured after 23 days by microplate reader assay relative to control; format: functional; settings: time 23 day
Rattus norvegicus [10] = experiment: Hypocholesterolemic activity in Wistar rat model with high cholesterol diet assessed as amount of HDL-C in serum at 6 mg/kg, po qd measured after 23 days by microplate reader assay relative to control; format: functional; settings: time 23 day
Rattus norvegicus [11] = experiment: Hypocholesterolemic activity in Wistar rat model with high cholesterol diet assessed as reduction in liver NAFLD activity score at 6 mg/kg, po qd measured after 23 days by H and E staining assay; format: functional; settings: time 23 day
Rattus norvegicus [12] = experiment: Hypocholesterolemic activity in Wistar rat model with high cholesterol diet assessed as reduction of steatosis at 6 mg/kg, po qd measured after 23 days by H and E staining assay relative to control; format: functional; set-up: scale not given: the % may be the effect or the level left; settings: time 23 day
Rattus norvegicus [13] = experiment: Hypocholesterolemic activity in Wistar rat model with high cholesterol diet assessed as liver NAFLD activity score at 6 mg/kg, po qd measured after 23 days by H and E staining assay relative to control; format: functional; settings: time 23 day

In the case of `COc1cc(C[C@H](CO[C@@H]2O[C@H](CO)[C@@H](O)[C@H](O)[C@H]2O)[C@@H](CO[C@@H]2O[C@H](CO)[C@@H](O)[C@H](O)[C@H]2O)Cc2ccc(O)c(OC)c2)ccc1O` [(+)-SECOISOLARICIRESINOLDIGLUCOSIDE], the Activity (Rattus norvegicus [1]) is reported as 1, the Activity (Rattus norvegicus [2]) is reported as 1.4 and the Activity (Rattus norvegicus [3]) is reported as 330 g. The Activity (Rattus norvegicus [4]) was 32%, the Activity (Rattus norvegicus [5]) was 10.4 g and the Activity (Rattus norvegicus [6]) was 31.5 g/kg. The Activity (Rattus norvegicus [7]) was 15%, the Activity (Rattus norvegicus [8]) was 10% and the Activity (Rattus norvegicus [9]) was 14%. The Activity (Rattus norvegicus [10]) was 24%, the Activity (Rattus norvegicus [11]) was 2.4 and the Activity (Rattus norvegicus [12]) was 22.2%. It also gave an Activity (Rattus norvegicus [13]) of 14.3%.

— ChEMBL document CHEMBL5032531, “Hypocholesterolemic Efficacy of Secoisolariciresinol Diglucoside and Its Polymer in Rat” (J Nat Prod, 2021)
